According to the supplement of paper PMC10307832:

Legend:
Assay in all cases: relative viability (nuclei count vs DMSO), 5 days (fraction); higher = more cells survive
Sulindac + Crizotinib = compound: CC1=C(CC(=O)O)c2cc(F)ccc2/C1=C\c1ccc([S+](C)[O-])cc1 [Sulindac] + C[C@@H](Oc1cc(-c2cnn(C3CCNCC3)c2)cnc1N)c1c(Cl)ccc(F)c1Cl [Crizotinib] (partner 1 µM)
Procedure, shortened: (§1)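 Dosing by pin tool came one day after lung cancer cell lines were seeded in 1536-well plates, using either one drug or a fixed anchor-drug dose plus five library-drug doses (not always all listed) in √10 steps. After 5 days, nuclei were counted on 4× images. Relative viability is treated-well nuclei count divided by vehicle-well nuclei count, and values are medians of duplicate plates.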

[1] = compound: CN[C@@H]1C[C@H]2O[C@@](C)([C@@H]1OC)n1c3ccccc3c3c4c(c5c6ccccc6n2c5c31)C(=O)NC4 [Staurosporine] + CS(=O)(=O)CCNCc1ccc(-c2ccc3ncnc(Nc4ccc(OCc5cccc(F)c5)c(Cl)c4)c3c2)o1 [Lapatinib] (partner 2 µM)
Procedure, shortened: as §1

[2] = compound: O=c1[nH]cc(F)c(=O)[nH]1 [5-Fluorouracil] + Cc1cc(Nc2cc(N3CCN(C)CC3)nc(Sc3ccc(NC(=O)C4CC4)cc3)n2)n[nH]1 [Tozasertib] (partner 0.1 µM)
Procedure, shortened: as §1

[3] = compound: O=c1[nH]cc(F)c(=O)[nH]1 [5-Fluorouracil] + C[C@]1(O)C[C@@H](c2nc(-c3ccc4ccc(-c5ccccc5)nc4c3)c3c(N)nccn32)C1 [Linsitinib] (partner 1 µM)
Procedure, shortened: as §1

Cell Line | relative viability (Sulindac + Crizotinib; first compound 0.08 µM) | relative viability (Sulindac + Crizotinib; first compound 0.253 µM) | relative viability (Sulindac + Crizotinib; first compound 0.8 µM) | relative viability (Sulindac + Crizotinib; first compound 2.53 µM) | relative viability (Sulindac + Crizotinib; first compound 8 µM) | relative viability ([1]; first compound 0.005 µM) | relative viability ([1]; first compound 0.05 µM) | relative viability ([1]; first compound 0.1581 µM) | relative viability ([1]; first compound 0.5 µM) | relative viability ([2]; first compound 0.02 µM) | relative viability ([2]; first compound 0.2 µM) | relative viability ([2]; first compound 0.6325 µM) | relative viability ([2]; first compound 2 µM) | relative viability ([3]; first compound 0.02 µM) | relative viability ([3]; first compound 0.2 µM) | relative viability ([3]; first compound 0.6325 µM) | relative viability ([3]; first compound 2 µM) | relative viability ([1]; first compound 0.01581 µM)
NCI-H1944 | 0.972 | 1.29 | 0.826 | 0.952 | 1.24 | 0.849 | 0.566 | 0.435 | 0.304 | 0.253 | 0.256 | 0.218 | 0.153 | 1.13 | 1.19 | 0.497 | 0.27 | –
NCI-H1975 | 1.06 | 1.07 | – | 1.01 | 1.14 | 0.572 | 0.227 | 0.13 | 0.0954 | 0.847 | 0.707 | 0.386 | 0.201 | 0.902 | 1.02 | 0.489 | 0.308 | 0.232
NCI-H1993 | 0.848 | 0.862 | 0.747 | 0.86 | 0.83 | 0.775 | 0.639 | 0.485 | 0.409 | 0.556 | 0.61 | 0.585 | 0.554 | 0.8 | 0.714 | 0.713 | 0.608 | 0.536
NCI-H2009 | 1.15 | 1.05 | 1.05 | 0.985 | 1.24 | 0.249 | 0.251 | 0.125 | 0.0882 | 0.802 | 0.793 | 0.684 | 0.474 | 1.16 | 1.15 | 0.934 | 0.735 | 0.152
NCI-H2023 | 0.686 | 0.429 | 0.53 | 0.718 | 0.685 | 0.509 | 0.18 | 0.0948 | 0.0518 | 0.441 | 0.146 | 0.112 | 0.0913 | 0.45 | 0.242 | 0.131 | 0.0929 | 0.11
NCI-H2085 | 0.735 | 0.944 | 0.779 | 0.772 | 0.953 | 0.65 | 0.463 | 0.351 | 0.243 | 0.867 | 0.784 | 0.828 | 0.608 | 0.894 | 0.963 | 0.932 | 0.587 | 0.391
NCI-H2087 | 1.08 | 0.882 | 0.739 | 1.03 | 0.85 | 0.755 | 0.427 | 0.206 | 0.105 | 0.282 | 0.236 | 0.253 | 0.156 | 0.91 | 0.865 | 0.657 | – | 0.548
NCI-H2126 | 1.13 | 1.01 | 1.03 | 1.04 | 1.11 | 0.805 | 0.505 | 0.336 | 0.356 | 0.634 | 0.392 | 0.316 | 0.281 | 0.64 | 0.378 | 0.341 | 0.285 | 0.571
NCI-H2228 | 0.504 | 0.47 | 0.519 | 0.475 | 0.479 | 0.88 | 0.346 | 0.137 | 0.115 | 0.293 | 0.25 | 0.24 | 0.187 | 0.443 | 0.627 | 0.48 | 0.36 | 0.49
NCI-H2347 | 0.77 | 0.688 | 0.684 | 0.812 | 0.819 | 0.457 | 0.352 | 0.319 | 0.407 | 0.606 | 0.425 | 0.303 | 0.292 | 0.997 | 0.748 | 0.467 | 0.411 | 0.348
NCI-H2405 | 0.907 | 0.899 | 0.701 | 0.85 | 0.939 | 0.395 | 0.113 | 0.0819 | 0.0797 | 0.686 | 0.81 | 0.733 | 0.703 | 0.883 | 0.967 | 0.881 | 0.672 | 0.148
NCI-H3122 | 0.282 | 0.251 | 0.266 | 0.232 | 0.259 | 1.01 | 0.988 | 0.665 | 0.685 | 0.382 | 0.356 | 0.203 | 0.157 | 1.09 | 0.799 | 0.415 | 0.223 | 0.318
PC-3 [JPC-3] | 1.09 | 1.06 | 0.959 | 1.02 | 1.02 | 0.46 | 0.429 | 0.287 | 0.307 | 0.828 | 0.881 | 0.827 | 0.554 | 0.947 | 0.949 | 0.888 | 0.698 | –
PC-14 | 0.942 | 0.891 | 0.726 | 0.911 | 1.02 | 0.293 | 0.0956 | 0.0886 | 0.0786 | 0.54 | 0.618 | 0.599 | 0.453 | 0.938 | 0.943 | 0.765 | – | 0.247
RERF-LC-KJ | 0.816 | 0.903 | 0.853 | 0.891 | 0.914 | 0.878 | 0.734 | 0.424 | 0.245 | 0.499 | 0.432 | 0.416 | 0.414 | 0.832 | 0.775 | 0.792 | 0.764 | 0.821
SK-LU-1 | 0.844 | 1.22 | 0.781 | 0.975 | 1.26 | 0.611 | 0.153 | 0.162 | 0.16 | 0.412 | 0.408 | 0.346 | 0.338 | 1.23 | 1.08 | 1.13 | 0.941 | 0.266
SK-MES-1 | 1.14 | 1.09 | 0.822 | 1.09 | 1.14 | 0.444 | 0.311 | 0.205 | 0.185 | 1.05 | 0.408 | 0.319 | 0.28 | 1.07 | 0.799 | 0.433 | 0.337 | 0.31
SW 1573 | 0.825 | 0.742 | 0.766 | 0.869 | 0.867 | 1.01 | 0.417 | 0.355 | 0.186 | 0.205 | 0.175 | 0.183 | 0.153 | 0.734 | 0.917 | 0.782 | 0.483 | 1.07
